Results taken from patent US20040081626A1, “Inhalation particles” (priority 1999, published 2004).

Tests used:
Format in all cases: physicochemical
[1] = Particle size analysis by electrical low pressure impactor (ELPI), measured gravimetrically; details: mass size distribution, dilution ratio 1:10
Description: Referring now to FIG. 1b, the particle size distribution was measured by an electrical low pressure impactor (12) (ELPI) connected to a vacuum (13). The particles exiting the tubular tube were passed into a diluter (10), with a dilution ratio of 1:10, before entering the ELPI. Exhaust gas exit (11) was arranged in the diluter. To minimize temperature gradient, and thus to reduce the moisture condensation, the diluter, the line to the diluter and the gas line into the diluter were layered with heating elements, which were kept at a temperature higher than that of the solution dew point. […] It is shown that a narrow size distribution within the range of aerodynamic particle size of interest, i.e. at around 1-5 μm, was obtained.

[2] = Particle crystallinity and polymorphism analysis by X-ray powder diffraction; details: for FWHMav: broadening of diffraction maxima positioned at 11.3° and 18.4°
Description: Crystallinity and polymorphism of the sample was studied by X-ray powder diffraction (Diffractometer D500, Siemens GmbH, Karlsruhe, Germany). A copper target X-ray (wavelength 0.1541 nm) tube was operated with the power of 40 kV×40 mA. For x-ray powder diffraction analysis, 10 mg of the sample was mounted to a specific cylindrical single crystal mini sample stage, which has a diameter of 10 mm and height of approximately 1 mm. […] The patterns obtained were identical. There were not significant differences in peak positions and additional peaks were not observed. […] The relative degree crystallinity of the powder was also determined based on the x-ray powder diffraction patterns. It is noticed that the powder was well crystallised. The maximum intensities were sharp and well above background intensities. The estimation was based on the broadening of the diffraction maxima (FWHM-values) positioned at 11.3° and 18.4°. It is seen that the relative degree of crystallinity of the powder is 21% higher than that of the reference powder.

[3] = Particle shape and surface structure by FE-SEM; details: 2 kV
Description: Referring now to FIG. 1c, individual particles were collected on the surface of a holey carbon film TEM grid (14) connected to a vacuum (15) after particle collection. The morphology of the particles were then imaged using a field emission low voltage scanning electron microscope (FE-SEM) operated at 2 kV acceleration voltage. FIGS. 4a to 4d are scanning electron microscope images of the powder (magnification ×20000 in FIGS. 4b, 4c, 4d and ×23000 in FIG. 4a).

CCC(=O)OCC(=O)[C@@]1(OC(=O)CC)[C@@H](C)C[C@H]2[C@@H]3CCC4=CC(=O)C=C[C@]4(C)[C@@]3(Cl)[C@@H](O)C[C@@]21C [Obtained beclomethasone dipropionate powder]
aerodynamic particle size distribution [1]: 1-5 μm
FWHMav [2]: 0.26 °
polymorphism ([2]; diffraction pattern compared to reference beclomethasone dipropionate powder): polymorphic crystal form class I
particle diameter [3]: 2-3 μm
particle shape and surface structure [3]: spherical with rough surfaces

CCC(=O)OCC(=O)[C@@]1(OC(=O)CC)[C@@H](C)C[C@H]2[C@@H]3CCC4=CC(=O)C=C[C@]4(C)[C@@]3(Cl)[C@@H](O)C[C@@]21C [Reference powder, beclomethasone dipropionate, reference compound]
FWHMav [2]: 0.33 °
